In assay [1] the test system is primary human fibroblasts derived from IPF patients (LL29 cells). As to the kind of experiment: Inhibition of TGF-β1-induced fibrosis (αSMA staining) in primary human fibroblasts from IPF patients. Particulars: Fibroblast, 96 h, TGF-β1 20 ng/mL, 4 days, 11-point dose-response 10 μM to 1.87 nM. The format is cell-based. An excerpt: The above synthesized compounds were screened using primary human fibroblasts (derived from IPF patients) treated with TGF-β1 to determine their ability to inhibit the fibrotic process.
Primary human fibroblasts derived from IPF patients (LL29 cells) [^1Xiaoqiu Liu, et. al., “Fibrotic Lung Fibroblasts Show Blunted Inhibition by cAMP Due to Deficient cAMP Response Element-Binding Protein Phosphorylation”, Journal of Pharmacology and Experimental Therapeutics (2005), 315(2), 678-687; ^2Watts, K. L., et. al., “RhoA signaling modulates cyclin D1 expression in human lung fibroblasts; implications for idiopathic pulmonary fibrosis”, Respiratory Research (2006), 7(1), 88] were obtained from American Type Culture Collection (ATCC) and expanded in F12 medium supplemented with 15% Fetal Bovine Serum and Penicillin/Streptomycin.
Each compound was dissolved in DMSO as a 10 mM stock and used to prepare compound source plates. Serial dilution (1:2, 11-point dose-response curves from 10 μM to 1.87 nM) and compound transfer was performed using the ECHO 550 (Labcyte, Sunnyvale, Calif.) into 384-well clear bottom assay plates (Greiner Bio-One) with appropriate DMSO backfill for a final DMSO concentration of 0.1%. LL29 cells were plated at 1,500 cells/well in 80 μl/well F12 medium supplemented with 1% Fetal Bovine Serum. One hour after addition of the cells, TGF-β1 (Peprotech; 20 ng/mL) was added to the plates to induce fibrosis (ref. 1 and 2 above). Wells treated with TGF-β1 and containing DMSO were used as controls. Cells were incubated at 37° C. and 5% CO2 for 4 days. Following incubation for 4 days, SYTOX green nucleic acid stain (Life Technologies [Thermo Fisher Scientific]) was added to the wells at a final concentration of 1 uM and incubated at room temperature for 30 min. Cells were then fixed using 4% formaldehyde (Electron Microscopy Sciences), washed 3 times with PBS followed by blocking and permeabilization using 3% Bovine Serum Albumin (BSA; Sigma) and 0.3% Triton X-100 (Sigma) in PBS. Cells were then stained with antibody specific to α-smooth muscle actin (αSMA; Abcam) (ref 1 and 2 above) in 3% Bovine Serum Albumin (BSA; Sigma) and 0.3% Triton X-100 (Sigma) in PBS, and incubated overnight at 4° C. Cells were then washed 3 times with PBS, followed by incubation with Alexa Flor-647 conjugated secondary antibody (Life Technologies [Thermo Fisher Scientific]) and DAPI at room temperature for 1 hour. Cells were then washed 3 times with PBS and plates were sealed for imaging. αSMA staining was imaged by excitation at 630 nm and emission at 665 nm and quantified using the Compartmental Analysis program on the CellInsight CX5 (Thermo Scientific). Dead or apoptotic cells were excluded from analysis based on positive SYTOX green staining. % of total cells positive for αSMA were counted in each well and normalized to the average of 11 wells treated with TGF-β1 on the same plate using Dotmatics' Studies Software. The normalized averages (fold change over untreated) of 3 replicate wells for each compound concentration were used to create dose-responses curves and EC50 values were calculated using non-linear regression curve fit in the Dotmatics' Studies Software. The EC50 values are reported.

The subject of assay [2] is Wnt activity (Sp5-Luc reporter, SW480 colon carcinoma cells). As to the kind of experiment: Sp5-Luc Wnt reporter gene assay in SW480 colon carcinoma cells. The format is cell-based. Particulars: Homo sapiens; SW480 cells stably expressing Sp5-Luc reporter; 42 h incubation; BrightGlo luminescence normalized to DMSO. An excerpt:
The screening assay for Wnt activity is described as follows. Reporter cell lines can be generated by stably transducing cancer cell lines (e.g., colon cancer) or primary cells (e.g., IEC-6 intestinal cells) with a lentiviral construct that includes a Wnt-responsive promoter driving expression of the firefly luciferase gene.
SW480 colon carcinoma cells were transduced with a lentiviral vector expressing luciferase with a human Sp5 promoter consisting of a sequence of eight TCF/LEF binding sites. SW480 cells stably expressing the Sp5-Luc reporter gene and a hygromycin resistance gene were selected by treatment with 150 μg/ml of hygromycin for 7 days. These stably transduced SW480 cells were expanded in cell culture and used for all further screening activities. For Sp5-Luc reporter gene assays, the cells were plated at 10,000 cells/well in 96-well plates with growth medium containing 10% fetal calf serum and incubated overnight at 37° C. and 5% CO2. Each compound was dissolved in DMSO as a 10 mM stock in standard j-vials and used to prepare compound source plates in dose-response format with 3-fold serial dilutions and a 10 mM top concentration. Compound transfer from serially diluted source plates to assay plates containing the cells was accomplished using a pintool (Multimek 96, Beckman equipped with V&P Scientific FP1S50H pins) based liquid handling protocol. This protocol used a slotted pin to transfer 50 nl of compound from a source plate well to an assay plate well containing 50 μl of cells in growth medium. […] Control wells received 50 nl of DMSO treatment for normalization and calculating IC50 values. The treated cells were incubated at 37° C. and 5% CO2 for an additional forty-two hours. Following incubation, the growth medium was removed and 50 μl of BrightGlo luminescence reagent (Promega) was added to each well of the 96-well assay plates. The plates were placed on an orbital shaker for 5 min and then luminescence was quantified on the Victor3 (Perkin Elmer) plate reader. Readings were normalized to DMSO only treated cells, and normalized activities were utilized for IC50 calculations using the dose-response log (inhibitor) vs. response-variable slope (four parameters) nonlinear regression feature available in GraphPad Prism 5.0 or 6.0.
(In general: In a reporter assay the amount or activity of a reporter protein is the signal.)

The record followed here is US9493487B2, “3-(1H-imidazo[4,5-C]pyridin-2-YL)-1H-pyrazolo[3,4-B]pyridine and therapeutic uses thereof” (Samumed, LLC, priority 2014, dated 2016).

The EC50 is the concentration that produces a half-maximal response. The term IC50 denotes the concentration that gives 50% inhibition. Lower therefore signals higher potency.

Each structure is given as a SMILES string.

With `CCCCC(=O)Nc1cncc(-c2cnc3[nH]nc(-c4nc5c(-c6ccccn6)nccc5[nH]4)c3c2)c1` [Compound 148, N-(5-(3-(4-(Pyridin-2-yl)-1H-imidazo[4,5-c]pyridin-2-yl)-1H-pyrazolo[3,4-b]pyridin-5-yl)pyridin-3-yl)pentanamide], the EC50 in assay [1] stood at 0.009 µM. In assay [2], inhibition was half-maximal at 6.16 µM (IC50).
The corresponding values for `CCC(=O)Nc1cncc(-c2cnc3[nH]nc(-c4nc5c(N6CCCCC6)nccc5[nH]4)c3c2)c1` [Compound 157, N-(5-(3-(4-(Piperidin-1-yl)-1H-imidazo[4,5-c]pyridin-2-yl)-1H-pyrazolo[3,4-b]pyridin-5-yl)pyridin-3-yl)propionamide] are 0.432 µM and 0.148 µM.
The matching figures for `CN(C)c1cncc(-c2cnc3[nH]nc(-c4nc5c(N6CCCCC6)nccc5[nH]4)c3c2)c1` [Compound 163, N,N-Dimethyl-5-(3-(4-(piperidin-1-yl)-1H-imidazo[4,5-c]pyridin-2-yl)-1H-pyrazolo[3,4-b]pyridin-5-yl)pyridin-3-amine]: 0.009 µM and 0.777 µM.
The corresponding values for `CN(C)Cc1cncc(-c2cnc3[nH]nc(-c4nc5c(N6CCCCC6)nccc5[nH]4)c3c2)c1` [Compound 169, N,N-Dimethyl-1-(5-(3-(4-(piperidin-1-yl)-1H-imidazo[4,5-c]pyridin-2-yl)-1H-pyrazolo[3,4-b]pyridin-5-yl)pyridin-3-yl)methanamine] are 0.888 µM and 2.27 µM.
As to `O=C(Nc1cncc(-c2cnc3[nH]nc(-c4nc5c(N6CCCCC6)nccc5[nH]4)c3c2)c1)C1CC1` [Compound 175, N-(5-(3-(4-(Piperidin-1-yl)-1H-imidazo[4,5-c]pyridin-2-yl)-1H-pyrazolo[3,4-b]pyridin-5-yl)pyridin-3-yl)cyclopropanecarboxamide], the EC50 in assay [1] turned out to be 0.859 µM. Besides, the IC50 in assay [2] came out at 0.413 µM.
The corresponding values for `FC1(F)CCN(Cc2cncc(-c3cnc4[nH]nc(-c5nc6c(N7CCCCC7)nccc6[nH]5)c4c3)c2)C1` [Compound 181, 5-(5-((3,3-Difluoropyrrolidin-1-yl)methyl)pyridin-3-yl)-3-(4-(piperidin-1-yl)-1H-imidazo[4,5-c]pyridin-2-yl)-1H-pyrazolo[3,4-b]pyridine] are 1.13 µM and 0.243 µM.
With `Cc1cn(-c2nccc3[nH]c(-c4n[nH]c5ncc(-c6cncc(CN7CCCC7)c6)cc45)nc23)cn1` [Compound 196, 3-(4-(4-Methyl-1H-imidazol-1-yl)-1H-imidazo[4,5-c]pyridin-2-yl)-5-(5-(pyrrolidin-1-ylmethyl)pyridin-3-yl)-1H-pyrazolo[3,4-b]pyridine], the EC50 in assay [1] is not below 9.99 µM. Moreover, the IC50 in assay [2] was 0.579 µM.
The matching figures for `CN1CCN(c2nccc3[nH]c(-c4n[nH]c5ncc(-c6cncc(N)c6)cc45)nc23)CC1` [Compound 211, 5-(3-(4-(4-Methylpiperazin-1-yl)-1H-imidazo[4,5-c]pyridin-2-yl)-1H-pyrazolo[3,4-b]pyridin-5-yl)pyridin-3-amine]: not below 9.99 µM and 0.334 µM.
The corresponding values for `CN1CCN(c2nccc3[nH]c(-c4n[nH]c5ncc(-c6cncc(CN7CCCCC7)c6)cc45)nc23)CC1` [Compound 223, 3-(4-(4-Methylpiperazin-1-yl)-1H-imidazo[4,5-c]pyridin-2-yl)-5-(5-(piperidin-1-ylmethyl)pyridin-3-yl)-1H-pyrazolo[3,4-b]pyridine] are not below 9.99 µM and more than 10 µM.
Consider `Cc1ccncc1-c1cnc2[nH]nc(-c3nc4c(-c5ccsc5)nccc4[nH]3)c2c1` [Compound 239, 5-(4-Methylpyridin-3-yl)-3-(4-(thiophen-3-yl)-1H-imidazo[4,5-c]pyridin-2-yl)-1H-pyrazolo[3,4-b]pyridine], for which the EC50 in assay [1] is 0.024 µM. The molecule further displayed an IC50 in assay [2] of 0.018 µM.
`O=C(Nc1cncc(-c2cnc3[nH]nc(-c4nc5c(-c6ccsc6)nccc5[nH]4)c3c2)c1)c1ccccc1` [Compound 245, N-(5-(3-(4-(Thiophen-3-yl)-1H-imidazo[4,5-c]pyridin-2-yl)-1H-pyrazolo[3,4-b]pyridin-5-yl)pyridin-3-yl)benzamide]: it took 0.28 µM to reach a half-maximal effect in assay [1] (EC50). In assay [2], inhibition was half-maximal at 0.102 µM (IC50).
The matching figures for `c1ccc(CNCc2cncc(-c3cnc4[nH]nc(-c5nc6c(-c7ccsc7)nccc6[nH]5)c4c3)c2)cc1` [Compound 257, N-Benzyl-1-(5-(3-(4-(thiophen-3-yl)-1H-imidazo[4,5-c]pyridin-2-yl)-1H-pyrazolo[3,4-b]pyridin-5-yl)pyridin-3-yl)methanamine]: 0.244 µM and 0.309 µM.
`c1cc2[nH]c(-c3n[nH]c4ncc(-c5cncc(CNCC6CCCC6)c5)cc34)nc2c(-c2ccoc2)n1` [Compound 284, 1-Cyclopentyl-N-((5-(3-(4-(furan-3-yl)-1H-imidazo[4,5-c]pyridin-2-yl)-1H-pyrazolo[3,4-b]pyridin-5-yl)pyridin-3-yl)methyl)methanamine]: the EC50 in assay [1] amounted to 1.18 µM. In addition, the IC50 in assay [2] is 0.875 µM.
`CCC(=O)Nc1cncc(-c2cnc3[nH]nc(-c4nc5c(-c6cccs6)nccc5[nH]4)c3c2)c1` [Compound 287, N-(5-(3-(4-(Thiophen-2-yl)-1H-imidazo[4,5-c]pyridin-2-yl)-1H-pyrazolo[3,4-b]pyridin-5-yl)pyridin-3-yl)propionamide] gave an EC50 in assay [1] of 0.578 µM. In assay [2], this molecule yielded an IC50 of 0.0229 µM.
The matching figures for `CN(C)c1cncc(-c2cnc3[nH]nc(-c4nc5c(-c6cccs6)nccc5[nH]4)c3c2)c1` [Compound 293, N,N-Dimethyl-5-(3-(4-(thiophen-2-yl)-1H-imidazo[4,5-c]pyridin-2-yl)-1H-pyrazolo[3,4-b]pyridin-5-yl)pyridin-3-amine]: 0.009 µM and 0.0371 µM.
The corresponding values for `CN(C)Cc1cncc(-c2cnc3[nH]nc(-c4nc5c(-c6cccs6)nccc5[nH]4)c3c2)c1` [Compound 299, N,N-Dimethyl-1-(5-(3-(4-(thiophen-2-yl)-1H-imidazo[4,5-c]pyridin-2-yl)-1H-pyrazolo[3,4-b]pyridin-5-yl)pyridin-3-yl)methanamine] are not below 9.99 µM and 1.44 µM.
The corresponding values for `FC1(F)CCN(Cc2cncc(-c3cnc4[nH]nc(-c5nc6c(-c7cccs7)nccc6[nH]5)c4c3)c2)C1` [Compound 311, 5-(5-((3,3-Difluoropyrrolidin-1-yl)methyl)pyridin-3-yl)-3-(4-(thiophen-2-yl)-1H-imidazo[4,5-c]pyridin-2-yl)-1H-pyrazolo[3,4-b]pyridine] are 0.174 µM and 0.0228 µM.
